The test system of assay [1] is rat brains subjected to concussive brain trauma. In words: Fluid percussion injury (FPI) model, TTC staining of brain sections. The format is in vivo. The note with it: applied prior to the injury or 1 hour after; 2-6 atm injury; FIG. 1. As to the method: Inhibitors of TRPM7 were tested for their ability to provide neuroprotection to rat brains subjected to concussive brain trauma using a rodent model of fluid percussion injury (FPI). FPI was performed as described in the literature using 350-370 g male Sprague Dawley rats (Charles River, St. Constant, Quebec, Canada). In brief, 24 h before injury, the animal was anesthetized using 2% halothane and 2:1 nitrous oxide:oxygen. A 4.8 mm craniotomy was made with its center between the bregma and lambda and between the sagittal suture and right temporal ridge. A modified Leur-loc fitting was attached over the craniotomy and cemented in place using Acron MC/R dental acrylic (GC America, Alsip, Ill.). The Leur-loc was filled with saline, and a small piece of gelfoam was inserted. The incision was sutured, and the animal was returned to its cage overnight if not used same day. The following day, the incision was reopened, cleaned, and the gelfoam was removed. […] Injury severity was recorded using an oscilloscope attached to a transducer, and by sectioning the brains and staining with 2,3,5-Triphenyltetrazolium chloride staining (TTC). […]
Likewise, TRPM7 inhibitors are also expected to provide neuroprotection to other types of brain injuries. […] TRPM7 inhibitors such as M21 were applied 1 hour after stretch injury and cells were assessed for survival by PI fluorescence 24 hours after the injury. […]

The subject of assay [2] is neurons, hepatocytes, cardiomyocytes, retina. The assay is described as follows: Survival after anoxia in cells and tissues. The format is cell-based. The note with it: summary statement.
Assay [3] concerns rats subjected to lateral FPI. The assay is described as follows: Rotarod performance after lateral FPI. The assay is classed as in vivo, rat. The note with it: FIG. 4A. The source says: Thus, M21 and TRPM7 inhibitors are effective treatments to reduce the damaging effects of neurotrauma, including concussions.
In the next assay the target is T1, TRPM7 ion channel (Mus musculus, UniProt Q923J1).
T1 construct: expressed in transfected cells; host or cells: TRPM7-tet-on HEK293 cells
T1 sequence (Q923J1 whole entry): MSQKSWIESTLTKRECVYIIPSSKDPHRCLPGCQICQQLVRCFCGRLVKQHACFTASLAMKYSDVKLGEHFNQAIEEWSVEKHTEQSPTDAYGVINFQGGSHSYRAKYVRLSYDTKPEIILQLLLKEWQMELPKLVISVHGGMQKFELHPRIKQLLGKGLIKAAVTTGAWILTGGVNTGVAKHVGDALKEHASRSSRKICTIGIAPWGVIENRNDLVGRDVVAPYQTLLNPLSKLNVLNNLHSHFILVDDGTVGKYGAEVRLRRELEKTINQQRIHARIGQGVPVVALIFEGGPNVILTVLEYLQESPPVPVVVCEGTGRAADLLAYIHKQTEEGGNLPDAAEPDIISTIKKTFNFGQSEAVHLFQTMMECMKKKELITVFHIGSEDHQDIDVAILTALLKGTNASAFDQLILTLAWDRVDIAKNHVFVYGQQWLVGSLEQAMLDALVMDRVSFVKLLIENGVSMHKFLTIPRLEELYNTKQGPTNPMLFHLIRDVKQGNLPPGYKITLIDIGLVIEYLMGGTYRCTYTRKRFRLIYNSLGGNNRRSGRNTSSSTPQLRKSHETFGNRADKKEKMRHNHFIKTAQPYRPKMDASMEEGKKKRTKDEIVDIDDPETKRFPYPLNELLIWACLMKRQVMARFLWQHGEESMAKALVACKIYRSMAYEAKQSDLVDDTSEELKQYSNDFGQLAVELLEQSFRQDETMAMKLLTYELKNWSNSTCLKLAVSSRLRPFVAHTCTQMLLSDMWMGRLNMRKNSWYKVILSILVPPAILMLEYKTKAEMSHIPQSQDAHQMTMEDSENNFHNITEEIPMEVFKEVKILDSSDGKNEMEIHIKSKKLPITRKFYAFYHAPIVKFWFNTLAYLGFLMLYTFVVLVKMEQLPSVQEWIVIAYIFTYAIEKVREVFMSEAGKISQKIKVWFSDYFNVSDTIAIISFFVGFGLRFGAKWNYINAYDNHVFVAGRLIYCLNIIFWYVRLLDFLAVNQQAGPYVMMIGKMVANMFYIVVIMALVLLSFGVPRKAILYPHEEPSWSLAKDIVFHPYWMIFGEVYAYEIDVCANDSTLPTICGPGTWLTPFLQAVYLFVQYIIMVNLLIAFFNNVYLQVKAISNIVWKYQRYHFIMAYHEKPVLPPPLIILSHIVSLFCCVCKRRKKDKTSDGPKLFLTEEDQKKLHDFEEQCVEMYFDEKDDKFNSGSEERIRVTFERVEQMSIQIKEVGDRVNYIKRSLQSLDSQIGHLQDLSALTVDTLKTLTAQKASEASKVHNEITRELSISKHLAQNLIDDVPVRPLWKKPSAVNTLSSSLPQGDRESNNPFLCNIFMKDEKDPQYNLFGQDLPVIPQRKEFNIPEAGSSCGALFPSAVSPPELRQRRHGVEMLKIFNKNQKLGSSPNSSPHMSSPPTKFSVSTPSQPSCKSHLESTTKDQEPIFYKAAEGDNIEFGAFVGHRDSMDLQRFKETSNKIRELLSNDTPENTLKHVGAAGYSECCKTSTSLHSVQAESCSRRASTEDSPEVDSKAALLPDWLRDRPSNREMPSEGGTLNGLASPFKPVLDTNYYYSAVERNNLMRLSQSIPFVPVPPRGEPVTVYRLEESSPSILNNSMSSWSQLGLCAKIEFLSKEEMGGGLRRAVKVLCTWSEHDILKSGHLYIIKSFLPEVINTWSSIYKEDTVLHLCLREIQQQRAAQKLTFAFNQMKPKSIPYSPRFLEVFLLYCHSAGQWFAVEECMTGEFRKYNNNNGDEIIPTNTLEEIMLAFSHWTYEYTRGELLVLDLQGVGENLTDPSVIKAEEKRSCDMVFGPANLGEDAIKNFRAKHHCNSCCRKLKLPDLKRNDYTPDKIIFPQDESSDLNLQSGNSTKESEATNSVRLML
The assay is described as follows: Whole-cell patch clamp of TRPM7 currents in HEK293 cells. The format is cell-based. The note with it: value shown = concentration at which the compound significantly inhibits the ion channel. As to the method:
To further understand the structure function relationships between the TRPM7 inhibitors identified in the TRPM7-dependent HEK death assay, the activity of a subset of these inhibitors described herein were tested for their ability to inhibit TRPM7 currents in cell systems. Whole-cell patch clamp recordings were used essentially as described to test the TRPM7 inhibitors in HEK293 cells, H9c2 cardiomyocytes and cultured neurons. […] Those that provide >10% inhibition of TRPM7 channel activity in the HEK293 cell system were labeled with the concentration tested (generally 5 uM). Thus, the compounds in this table marked with such a value are able to block the activity gof the TRPM7 ion channel. FIGS. 2A-C provide an example of this for the TRPM7 inhibitor 399 (Structure 9). […] Numbers in brackets indicate the number of independent tests, and the bars represent the SEM.
Whole-cell currents were recorded using an Axopatch 1D or MultiClamp 700B amplifier and were digitized at 10 kHz and low-pass filtered at 2 kHz, at room temperature. pClamp10 software was used for data acquisition and analysis. Patch electrodes were pulled from Borosilicate glass and fire polished to a resistance of 2-4 MΩ. All drugs were administrated directly to cell bodies under recording through the fast exchange perfusion system.
The intracellular solution (ICS) contains (mM) 145 Cs-methanesulfonate, 8 NaCl, l MgCl2, 4.1 CaCl2, 10 EGTA, and 10 HEPES, 5 ATP, pH at 7.4, with 300-305 mOsm. The extracellular solution (ECS) contains (mM) 140 NaCl, 5 KCl, 2 CaCl2, 20 HEPES, and 10 glucose, pH at 7.4 and with 315-320 mOsm.
Voltage stimuli lasting 250 ms were delivered at 5-s intervals with voltage ramps ranging from −100 to +100 mV. The current values at −80 mV and +80 mV on I-V curve represent the measures of inward and outward current respectively.
Table X and FIGS. 7-51 show screening data for several additional compounds that are variants of M5, M6 or M21. The synthesis of compounds of Table X and FIGS. 7-51 is shown in Appendices A-C. The compounds shown in FIGS. 7-51 can be related to the appropriate row of Table X by the compound number shown in the figures and in the first column of Table X. The compounds in Table X other than M5, M6 and M21 themselves, are believed to be novel. The Table provides a number identifying the compound, its structurer, molecular weight and its cluster (i.e., whether the compound resembles M5, M6 or M21). The three columns relations to PI uptake describe the results of screening the compounds in the type of assay from Example 1. […] The last two columns show an effect on proliferation of Weri retinoblastoma or HeLa cervical cancer cells. Inhibition of proliferation is a measure of anti-neoplastic activity. […] If no data is shown, no test was performed.

“Also recorded” adds a separate entry of the source.

With `Cc1c(Cc2ccc(Cl)c(Cl)c2)c(=O)oc2cc(O)ccc12` [Compound M21], in assay [1], the “protection of rat brains from fluid percussion-induced neuronal damage” value is listed as “able to protect the brain from injuries sustained from concussive trauma; also recorded: significant protection”. Also, the survival after anoxia entry in assay [2] is given as “broadly effective in increasing survival after anoxia in various tissues”. Also, the “time able to maintain balance on the Rotarod relative to injured animals treated with vehicle alone” value in assay [3] is on record as “twice the time”. Also, the “Rotarod performance (mean latency)” value in assay [3] (first day post injury, compared to FPI+Vehicle) is “near wild type levels of performance”. For the same compound, the TRPM7 current at TRPM7 ion channel is listed as 5 μM (Those that provide >10% inhibition of TRPM7 channel activity in the HEK293 cell system were labeled with the concentration tested (generally 5 uM)).
